For test [1] the following is noted: qualitative statement from prior art / literature; cited from earlier work.
Test [2] in a line: Sweetness taste panel: sucrose equivalency, aqueous solutions matched to sucrose standard solutions. As to conditions: relative to sucrose. The source says: A taste procedure for determination of sweetness merely involves the determination.of sucrose equivalency. Sucrose equivalence for sweeteners are readily determined. The amount of a sweetener that is equivalent to a given weight percent sucrose can be determined by having a panel of tasters taste solutions of a sweetener at known concentrations and match its sweetness to standard solutionsof sucrose.
The following sensory evaluations were obtained by a panel of experts using known weight percent aqueous solutions of the above compound matched to sucrose standard solutions as previously described.

The structures appear in SMILES notation. Where a SMILES comes first, the peptide text is derived from it. The star is where a group is joined. tBu = CC(C)(C)*

`COC(=O)[C@H](COC(C)(C)C)NC(=O)[C@@H](N)CC(=O)O` [L-aspartyl-0-t,- butyl-L-serine methyl ester] (H-Asp-Ser(tBu)-OMe): the sweetness result in test [1] is “significant sweetness”. `CCC(C)(C)OC[C@H](NC(=O)[C@@H](N)CC(=O)O)C(=O)OC` [L-aspartyl-0-t-amyl-L-serine methyl ester]: the sweetness entry in test [1] is given as “significant sweetness”. As to `CCOC(=O)[C@H](COC1(C)CCCC1)NC(=O)[C@@H](N)CC(=O)O` [∝-L-Aspartyl-O-(1-methylcyclopentyl)-L-serine ethyl ester], in test [2], the sweetness equivalent is reported as 150 x sucrose.

(Values after patent publication EP0186173A2, “L-Aminodicarboxylic-(0-cycloalkyl)-L-aminocarboxylate alkyl esters, an edible composition containing same as sweeteners and a method for sweetening an edible composition” (GENERAL FOODS CORPORATION, priority 1984, dated 1986).)
